The source of these data is publication PMC4865820, “Branched Peptide, B2088, Disrupts the Supramolecular Organization of Lipopolysaccharides and Sensitizes the Gram-negative Bacteria” (Scientific Reports, 2016).

Positions of bridges follow the written chain, without caps; N, C: chain ends. Residues, ends and D or L forms follow the SMILES beside them. Chains are numbered I, II in the order given.

One data set concerns FITC-labelled LPS. The data set is described as follows: FITC-LPS fluorescence interaction assay. It is filed as binding. The following applies: 5 μg/ml FITC-LPS, ex 485/em 515 nm, 25 °C. From the text:
To confirm the findings from ITC experiments, we examined the ultrastructure of LPS or the LPS/B2088 complex by electron microscopy. TEM analysis of the LPS indicated a ribbon-like structure (Fig. 3a), consistent with previous studies. For the LPS-B2088 complex, the peptide:LPS ratios were chosen to epitomize the initial (high peptide:LPS) or final (low peptide:LPS) injections of the ITC curves shown in Fig. 2a–c. At low peptide:LPS ratio (~0.04), more electron-dense surface appeared presumably due to binding of the peptide to LPS may cause partial/complete neutralization of the negative charges and the ribbon-like structure of LPS remained intact (Fig. 3b). […]
The interaction between FITC-LPS was determined by monitoring the change in fluorescence emission intensity (λex = 485 nm and λem = 515 nm) using a Quanta Master spectrophotometer (Photon Technology International, NJ, USA) with a constant slit width of 0.5 nm at 25 °C. Briefly, the emission intensity of 5 μg/ml of FITC-LPS was monitored continuously in a 1 ml cuvette until it remained constant. 10 μl a concentrated stock solution of B2088 was added and the changes in fluorescence intensity were recorded as before.

For data set [1], the system named is human corneal epithelial (hTCEpi) cells. From the text:
To assess the safety of B2088 as a part of preclinical assessment, we used the xCELLigence system for the real-time analysis of cytotoxicity.

As to `CC(C)[C@H](NC(=O)[C@H](CCCCN)NC(=O)[C@H](CCCNC(=N)N)NC(=O)CNC(=O)[C@@H](N)CCCNC(=N)N)C(=O)N[C@H](C(=O)N[C@@H](CCCNC(=N)N)C(=O)N[C@@H](CCCNC(=N)N)C(=O)NCCCC[C@H](NC(=O)[C@H](CCCNC(=N)N)NC(=O)[C@H](CCCNC(=N)N)NC(=O)[C@@H](NC(=O)[C@@H](NC(=O)[C@H](CCCCN)NC(=O)[C@H](CCCNC(=N)N)NC(=O)CNC(=O)[C@@H](N)CCCNC(=N)N)C(C)C)C(C)C)C(=O)N[C@@H](CCCCN)C(=O)O)C(C)C` [B2088] (I: H-RGRKVVRRKK-OH / II: H-RGRKVVRR; amide I:9-II:C; N-terminus and C-terminus assumed), the “Peptide concentration above which dequenching of FITC-LPS fluorescence occurred” value with FITC-labelled LPS was “above 25 μg/ml”. Also, the “Change in CI values with time” value in data set [1] is “significant increase in CI values”.
